Results as given in patent publication US20240263153A1, “INTEGRASE COMPOSITIONS AND METHODS” (Flagship Pioneering Innovations Vi, LLC, priority 2021, published 2024).

System: mouse liver
Test: LNP-mediated delivery of RNA to the mouse liver (luciferase activity of liver homogenate)
Format: in vivo
Conditions: C57BL6 male mice, i.v. 1 mg/kg, Firefly luciferase mRNA-LNPs, liver at 6, 24, 48 hours
Protocol: To measure the effectiveness of LNP-mediated delivery of firefly luciferase containing particles to the liver, LNPs were formulated and characterized as described herein and tested in vitro prior to administration to mice. C57BL6 male mice (Charles River Labs) at approximately 8 weeks of age were dosed with LNPs via intravenous (i.v.) route at 1 mg/kg. Vehicle control animals were dosed i.v. with 300 μL phosphate buffered saline. Mice were injected via intraperitoneal route with dexamethasone at 5 mg/kg 30 minutes prior to injection of LNPs. Tissues were collected at necropsy at or 6, 24, 48 hours after LNP administration with a group size of 5 mice per time point. Liver and other tissue samples were collected, snap-frozen in liquid nitrogen, and stored at −80° C. until analysis.
Frozen liver samples were pulverized on dry ice and transferred to homogenization tubes containing lysing matrix D beads (MP Biomedical). Ice-cold 1× luciferase cell culture lysis reagent (CCLR) (Promega) was added to each tube and the samples were homogenized in a Fast Prep-24 5G Homogenizer (MP Biomedical) at 6 m/s for 40 seconds. The samples were transferred to a clean microcentrifuge tube and clarified by centrifugation. Prior to luciferase activity assay, the protein concentration of liver homogenates was determined for each sample using the Pierce™ BCA Protein Assay Kit (ThermoFisher Scientific) according to the manufacturer's instructions. Luciferase activity was measured with […] (total protein) of liver homogenate using the luciferase assay reagent (Promega) according to manufacturer's instructions using an i3X SpectraMax plate reader (Molecular Devices). […] Reporter activity by the various formulations followed the ranking LIPIDV005>LIPIDV004>LIPIDV003. RNA expression was transient and enzyme levels returned near vehicle background by 48 hours. Post-administration. This assay validated the use of these ionizable lipids and their respective formulations for RNA systems for delivery to the liver.

SMILES | luciferase reporter activity in liver samples
CCCCCCCC(=O)N(CCCN(C)C)C(CCCCCCCCC(=O)OC(CCCCCC)CCCCCC)CCCCCCCCC(=O)OC(CCCCCC)CCCCCC [LIPIDV005] | LIPIDV005>LIPIDV004>LIPIDV003
CCCCCCCCCOC(=O)CCCCCCCN(CCO)CCCCCCCC(=O)OC(CCCCCCCC)CCCCCCCC [LIPIDV004, Heptadecan-9-yl 8-((2-hydroxyethyl)(8-(nonyloxy)-8-oxooctyl)amino)octanoate] | LIPIDV005>LIPIDV004>LIPIDV003
CCCCC/C=C\C/C=C\CCCCCCCC(=O)OCC(COC(=O)CCC(OCCCCCCCC)OCCCCCCCC)COC(=O)OCCCN(CC)CC (stereo not drawn) [LIPIDV003, (9Z,12Z)-3-((4,4-bis(octyloxy)butanoyl)oxy)-2-((((3-(diethylamino)propoxy)carbonyl)oxy)methyl)propyl octadeca-9,12-dienoate] | LIPIDV005>LIPIDV004>LIPIDV003
